Data from patent US20190315823A1, “SMALL CATIONIC ANTI-BIOFILM AND IDR PEPTIDES” (priority 2013, published 2019).
Ends that are not written are not given here.

Key:
[1] = test system: human peripheral blood mononuclear cells (MCP-1); assay: SPOT-synthesized derivative screen: production of chemokine MCP-1; assay type: cell-based; conditions: Table 12, No LPS, human PBMC, peptide at ~18-24 μM; for MCP1: background subtracted 139 (HH2 derivatives), 170 (1018 derivatives), 242 (1002 and hybrid peptides) pg/ml
In short: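 PBMC from heparinized healthy-donor venous blood, Ficoll-separated, cultured at 0.75 to 1×10^6 cells/ml, 37 °C, 5% CO2, under the treatment regimens. MCP-1 in cell-free supernatants measured by capture ELISA.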

[2] = test system: LPS-stimulated human peripheral blood mononuclear cells (IL1-β); assay type: cell-based; conditions: Table 12, cells stimulated with 10 ng/ml LPS; for IL1β Production: LPS alone 1313 (HH2 derivatives), 1927 (1018 derivatives), 2455 (1002 and hybrid peptides) pg/ml
[3] = test system: methicillin resistant Staphylococcus aureus (MRSA) biofilm; conditions: approximate peptide concentration […] (around 3 μg/ml); compared to untreated samples
In short: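 Static biofilm assay: 1/100 dilutions of overnight cultures grown in BM2 medium (pH 7, glucose, Casamino Acids) or Luria Broth with peptide added at time zero. After 22–46 h, adherent biofilm was stained with crystal violet and read at 595 nm. Some peptides were also tested on K. pneumoniae under flow in a Bioflux system.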

Row | Substance | Fold increase in MCP1 cf. untreated cells [1] | MCP1 [1] | Fold change in IL1β relative to no peptide LPS stimulated cells [2] | IL1β Production [2] | % Biofilm inhibition [3]
1 | 1002-I4: single substituted 1002 peptide (VQRILIVWRIRK-NH2) [Peptide 1002-I4] | 2.1 | 273.6 pg/mL | 0.09 | 213 pg/mL | 62%
2 | 1018-W7: single substituted 1018 peptide (VRLIVAWRIWRR-NH2) [Peptide 1018-W7] | 0.8 | -28 pg/mL | 0.37 | 483 pg/mL | 55%
3 | 1002-G12: single substituted 1002 peptide (VQRWLIVWRIRG-NH2) [Peptide 1002-G12] | 0.9 | -36.2 pg/mL | 0.10 | 240 pg/mL | 50%
4 | 1018-A1: single substituted 1018 peptide (ARLIVAVRIWRR-NH2) [Peptide 1018-A1] | 1.9 | 161 pg/mL | 0.13 | 170 pg/mL | 51%
5 | 1002-V9: single substituted 1002 peptide (VQRWLIVWVIRK-NH2) [Peptide 1002-V9] | 1.5 | 131.8 pg/mL | 0.05 | 134 pg/mL | 47%
6 | HH2-L12: single substituted HH2 peptide (VQLRIRVAVIRL-NH2) | 24 | 3916 pg/mL | 0.23 | 301 pg/mL | 51%
7 | HH2-I7: single substituted HH2 peptide (VQLRIRIAVIRA-NH2) | 8.8 | 1332 pg/mL | 0.68 | 897 pg/mL | 69%
8 | 1018-W11: single substituted 1018 peptide (VRLIVAVRIWWR-NH2) [Peptide 1018-W11] | 0.8 | -28 pg/mL | 0.62 | 814 pg/mL | 53%
9 | 1018-A3: single substituted 1018 peptide (VRAIVAVRIWRR-NH2) [Peptide 1018-A3] | 0.4 | -110 pg/mL | 0.57 | 748 pg/mL | 49%
10 | 1018-I12: single substituted 1018 peptide (VRLIVAVRIWRI-NH2) [Peptide 1018-I12] | 19 | 3003 pg/mL | 0.24 | 314 pg/mL | 57%
11 | 1018-W9: single substituted 1018 peptide (VRLIVAVRWWRR-NH2) [Peptide 1018-W9] | 2.5 | 247 pg/mL | 0.10 | 127 pg/mL | 69%
12 | 1002-R4: single substituted 1002 peptide (VQRRLIVWRIRK-NH2) [Peptide 1002-R4] | 0.9 | -36.2 pg/mL | 0.34 | 834 pg/mL | 36%
13 | 1002-I9: single substituted 1002 peptide (VQRWLIVWIIRK-NH2) [Peptide 1002-I9] | 3.5 | 605.9 pg/mL | 0.06 | 158 pg/mL | 53%
14 | HH2-G6: single substituted HH2 peptide (VQLRIGVAVIRA-NH2) | 8.6 | 1287 pg/mL | 1.08 | 1423 pg/mL | 33%
15 | HH2-W7: single substituted HH2 peptide (VQLRIRWAVIRA-NH2) | 9.2 | 1395 pg/mL | 0.88 | 1154 pg/mL | 70%
16 | 1018-A5: single substituted 1018 peptide (VRLIAAVRIWRR-NH2) [Peptide 1018-A5] | 1.3 | 57 pg/mL | 0.57 | 752 pg/mL | 54%
17 | 1018-L5: single substituted 1018 peptide (VRLILAVRIWRR-NH2) [Peptide 1018-L5] | 3.0 | 335 pg/mL | 0.12 | 162 pg/mL | 71%
18 | 1002-I7: single substituted 1002 peptide (VQRWLIIWRIRK-NH2) [Peptide 1002-I7] | 3.3 | 557.5 pg/mL | 0.05 | 127 pg/mL | 73%
19 | 1018-G8: single substituted 1018 peptide (VRLIVAVGIWRR-NH2) [Peptide 1018-G8] | 1.3 | 57 pg/mL | 0.10 | 127 pg/mL | 54%
20 | 1018-I7: single substituted 1018 peptide (VRLIVAIRIWRR-NH2) [Peptide 1018-I7] | 5.2 | 714 pg/mL | 0.10 | 127 pg/mL | 63%
21 | 1002-L12: single substituted 1002 peptide (VQRWLIVWRIRL-NH2) [Peptide 1002-L12] | 4.7 | 905.7 pg/mL | 0.05 | 127 pg/mL | 64%
22 | 1002-L9: single substituted 1002 peptide (VQRWLIVWLIRK-NH2) [Peptide 1002-L9] | 1.8 | 199.1 pg/mL | 0.05 | 127 pg/mL | 57%
23 | 1002-W3: single substituted 1002 peptide (VQWWLIVWRIRK-NH2) [Peptide 1002-W3] | 1.4 | 90.4 pg/mL | 0.05 | 127 pg/mL | 68%
24 | 1002-K10: single substituted 1002 peptide (VQRWLIVWRKRK-NH2) [Peptide 1002-K10] | 0.9 | -32.5 pg/mL | 0.05 | 127 pg/mL | 0%
25 | 1018-L6: single substituted 1018 peptide (VRLIVLVRIWRR-NH2) [Peptide 1018-L6] | 0.7 | -60 pg/mL | 0.26 | 340 pg/mL | 69%
26 | HH2-Q9: single substituted HH2 peptide (VQLRIRVAQIRA-NH2) | 34 | 5588 pg/mL | 1.01 | 1321 pg/mL | 43%
27 | HH2-G5: single substituted HH2 peptide (VQLRGRVAVIRA-NH2) | 2.9 | 321 pg/mL | 1.27 | 1672 pg/mL | 34%
28 | 1018-Q12: single substituted 1018 peptide (VRLIVAVRIWRQ-NH2) [Peptide 1018-Q12] | 0.8 | -28 pg/mL | 0.50 | 655 pg/mL | 57%
